Read-outs that look alike come from different tables or passages of the source.
How the values were obtained:
[1] = system: SARS-CoV-2 isolate MAD6 (Wuhan-Hu-1 strain); assay: Virus yield inhibition in infected Calu3 2B4 cells, plaque assay on Vero E6; type: cell-based; details: for IC50 / SARS-CoV-2 isolate MAD6 titers: 24 hpi; for IC50: read-out: IC50, virus yield; for SARS-CoV-2 titers: at 100 μM, Fig. 3, no drug 3.±0.1 × 10^5; for SARS-CoV-2 isolate MAD6 titers: no drug 3.4 ± 1 × 10^5
HCoV-OC43 [2] = assay: microbe, parasite or virus in culture; type: cell-based
HCoV-229E-GFP [3] = assay: microbe, parasite or virus in culture; type: cell-based; details: for IC50: Human coronavirus 229E
[4] = system: SARS-CoV-2 isolate 39896362_AG (omicron strain); assay: microbe, parasite or virus in culture; type: cell-based; details: for IC50: Severe acute respiratory syndrome coronavirus 2, Vero C1008, omicron strain, AV from 1 h before adsorption, read-out: IC50, virus yield; for IC50 / SARS-CoV-2 isolate 39896362_AG titers: Fig. 1; for SARS-CoV-2 isolate 39896362_AG titers: no drug 1 ± 0.1 × 10^5
HCoV-229E-GFP [5] = type: cell-based; details: no drug 3.5 ± 0.6 × 10^6
in vitro [6] = details: human
in vitro [7] = details: African green monkey
in vitro [8] = details: human, CC50 (MTT assay), Huh-7
in vitro [9] = details: human, CC50 (MTT assay), HCT-8
HCoV-OC43 [10] = type: cell-based; details: no drug 3.2 ± 0.2 × 10^6
SARS-CoV-2 (MAD6) = assay: Drug combination (synergy) study, virus yield in Calu3 2B4, CompuSyn; type: cell-based; details: for SARS-CoV-2 titers: no drug 3.2 ± 0.2 × 10^5; for average DRI: for the named drug over its combinations, at Fa = 0.5 to 0.95
HCoV-OC43 [11] = assay: Direct virucidal effect on virus particles; details: 10^5 PFU, 1 h at room temperature; LG 0 to 300 μM, VPA 0 to 300 mM
[12] = system: SARS-CoV-2 isolate MAD6 (Wuhan-Hu-1 strain); assay: Time of addition assay; type: cell-based; details: for IC50: 24 hpi, read-out: IC50, SARS-CoV-2 production
HCoV-OC43 [13] = assay: Time of addition assay; type: cell-based; details: for IC50: 48 hpi
SARS-CoV-2 = assay: Direct virucidal effect on virus particles; details: 10^5 PFU, 1 h at room temperature; LG 0 to 300 μM, VPA 0 to 300 mM
TGEV = assay: Antiviral effect against TGEV in WSL or ST cells, plaque assay on ST; type: cell-based, swine coronavirus TGEV; details: LG in WSL cells, VPA in ST cells
Description: Figure S2. […] The inhibitory effect […]
of LG or VPA was assayed on triplicate cultures of TGEV-infected WSL (wild swine macrophage cell line) or ST (swine testis) cells, respectively. After 1 h-pre-incubation with AVs, triplicate cultures were infected with the corresponding virus, at a MOI of 2 PFU/cell, in a reduced volume of medium containing the AV, for 2h, virus inoculum removed and cells washed twice with medium, before the addition of drug-containing fresh medium (supplemented with 2% FBS). Cultures were then incubated for 24 h at 37 °C; total virus (intracellular and extracellular) production was evaluated by plaque assay on triplicate cultures of ST cells. Left y-axis represents infectious virus progeny at 24 hpi and right y-axis, cell viability determined by MTT assay of each corresponding cell line. IC50 values and SI values […]
[TGEV titers (PFU/ml): 1.1±0.1 x 108 in the absence of the drugs, […]
(1 picture or pasted object on this page, not shown here)

HCoV-229E-GFP [14] = assay: Time of addition assay; type: cell-based; details: for IC50: Human coronavirus 229E, 24 hpi
[15] = system: HCoV-229E, HCoV-OC43, and SARS-CoV-2; assay: Antiviral assays, summary over all tested HCoVs; type: cell-based, human coronaviruses
HCoV-229E-GFP [16] = assay: Direct virucidal effect on virus particles; details: 10^5 PFU, 1 h at room temperature; LG 0 to 300 μM, VPA 0 to 300 mM
[17] = Severe acute respiratory syndrome coronavirus 2, Calu-3 2B4, specificity experiment (Fig. 3), Calu3 2B4
[18] = at 100 μM, Fig. 3, no drug 1.8 ± 0.9 × 10^6
[19] = at 100 μM, Fig. 3, no drug 4 ± 0.9 × 10^6
[20] = Betacoronavirus 1, OC43, Huh-7, read-out: IC50, virus yield, Huh-7, AV from 1 h before adsorption, 48 hpi, Fig. 1
[21] = Huh-7, read-out: IC50, virus yield, Huh-7, AV from 1 h before adsorption, 24 hpi, Fig. 1
[22] = Betacoronavirus 1, OC43, Huh-7, read-out: IC50, virus yield, specificity experiment (Fig. 3), Huh-7, 48 hpi

With `O=C(O)c1cc(O)c(O)c(O)c1` [G, gallic acid] the IC50 [1, 17] was 0.0405 mM, the SARS-CoV-2 titers [1] was 7.5 ± 0.2 × 10^4 PFU/mL and the “inhibition of viral multiplication at nontoxic concentrations” value (“inhibition of viral multiplication” below) (HCoV-OC43 [2]; Huh-7, Fig. 3) was “Neither G nor PG inhibited viral multiplication”. For the same molecule, the HCoV-OC43 titers (HCoV-OC43 [2]; [18]) was 1.2 ± 0.2 × 10^6 PFU/mL, the “inhibition of viral multiplication” value (HCoV-229E-GFP [3]; Huh-7, Fig. 3) was “Neither G nor PG inhibited viral multiplication” and the HCoV-229E-GFP titers (HCoV-229E-GFP [3]; [19]) was 3.1 ± 0.2 × 10^6 PFU/mL.

With `CCC(CC)COC(=O)[C@H](C)N[P@](=O)(OC[C@H]1O[C@@](C#N)(c2ccc3c(N)ncnn23)[C@H](O)[C@@H]1O)Oc1ccccc1` [RDV, remdesivir] the “selectivity index (SI=CC50/IC50)” value ([4]; SARS-CoV-2 omicron, Vero E6) was 52, the IC50 ([4]; Vero E6) was 0.00163 ± 0.0002 mM and the “SARS-CoV-2 isolate 39896362_AG titers” value ([4]; at RDV 32 μM) was 5 ± 0.01 × 10^1 PFU/mL. The “selectivity index (SI=CC50/IC50)” value ([1]; SARS-CoV-2 Wuhan-Hu-1, Calu3 2B4) was 102, the IC50 ([1]; Severe acute respiratory syndrome coronavirus 2, Calu-3 2B4, Calu3 2B4, Wuhan-Hu-1 strain, AV from 1 h before adsorption, Fig. 1) was 0.00107 mM and the “SARS-CoV-2 isolate MAD6 titers” value ([1]; at RDV 20 μM, Fig. 1) was 6 ± 0.3 × 10^2 PFU/mL. The HCoV-229E-GFP titers (HCoV-229E-GFP [5]; at 160 nM RDV) was 4 ± 0.2 × 10^2 PFU/mL, the IC50 (HCoV-OC43 [2]; [20]) was 0.046 µM and the “selectivity index (SI=CC50/IC50)” value (HCoV-OC43 [2]; HCoV-OC43, Huh-7) was 435. The HCoV-OC43 titers (HCoV-OC43 [2]; at RDV 500 nM, 48 hpi, no drug 3.1 ± 0.9 × 10^6, Fig. 1) was 6 ± 0.1 × 10^2 PFU/mL, the CC50 (in vitro [6]) was 0.109 mM and the CC50 (in vitro [7]) was 0.085 mM. It also gave a CC50 (in vitro [8]; 24 h cell incubation with AV) of 0.025 mM, a CC50 (in vitro [8]; 48 h cell incubation with AV) of 0.02 mM and a CC50 (in vitro [9]; 24 h cell incubation with AV) of 0.043 mM. The CC50 (in vitro [9]; 48 h cell incubation with AV) was 0.038 mM, the HCoV-OC43 titers (HCoV-OC43 [10]; at 320 nM RDV) was 1.6 ± 0.2 × 10^4 PFU/mL and the SARS-CoV-2 titers (SARS-CoV-2 (MAD6); at 8 μM RDV) was 1.7 ± 0.2 × 10^3 PFU/mL. The “average DRI” value (SARS-CoV-2 (MAD6)) was 4.31, the “selectivity index (SI=CC50/IC50)” value (HCoV-229E-GFP [3]) was 1732 and the IC50 (HCoV-229E-GFP [3]; [21]) was 0.0144 ± 0.0041 µM. The HCoV-229E-GFP titers (HCoV-229E-GFP [3]; at RDV 500 nM, 24 hpi, no drug 3 ± 0.5 × 10^6, Fig. 1) was 6 ± 0.1 × 10^2 PFU/mL.

For `CCCOC(=O)c1cc(O)c(O)c(O)c1` [PG, propyl gallate], the IC50 (HCoV-OC43 [2]; [22]) was 22.5 µM, the “inhibition of viral multiplication” value (HCoV-OC43 [2]; Huh-7, Fig. 3) was “Neither G nor PG inhibited viral multiplication” and the HCoV-OC43 titers (HCoV-OC43 [2]; [18]) was 1.2 ± 0.3 × 10^6 PFU/mL. The “inhibition of viral multiplication” value (HCoV-229E-GFP [3]; Huh-7, Fig. 3) was “Neither G nor PG inhibited viral multiplication” and the HCoV-229E-GFP titers (HCoV-229E-GFP [3]; [19]) was 2.2 ± 0.3 × 10^6 PFU/mL.

In the case of `CCCC(CCC)C(=O)O` [VPA, valproic acid], the IC50 ([4]; Vero E6) is reported as 5.15 ± 0.3 mM, the “SARS-CoV-2 isolate 39896362_AG titers” value ([4]; at VPA 128 mM) is reported as 1 ± 0.1 × 10^2 PFU/mL and the “SARS-CoV-2 isolate MAD6 titers” value ([1]; at VPA 100 mM, Fig. 1) is reported as 5 ± 0.01 × 10^1 PFU/mL. For the same molecule, the “direct virucidal effect (change in virus titers)” value (HCoV-OC43 [11]) was “No decrease in virus titers”, the HCoV-229E-GFP titers (HCoV-229E-GFP [5]; at 32 mM VPA) was 5 ± 0.3 × 10^2 PFU/mL and the IC50 ([12]; Severe acute respiratory syndrome coronavirus 2, AV added 0 hpi) was 5.02 mM. For the same molecule, the IC50 ([12]; Severe acute respiratory syndrome coronavirus 2, AV added 2 hpi) was 5.04 mM, the IC50 ([12]; Severe acute respiratory syndrome coronavirus 2, AV added −2 hpi (1 h before adsorption)) was 4.99 mM and the SARS-CoV-2 average titers ([12]; at 100 mM VPA, average of addition times, no drug 3.4 ± 0.2 × 10^5) was 5 ± 0.01 × 10^1 PFU/mL. The IC50 (HCoV-OC43 [2]; [20]) was 9330 ± 2100 µM, the HCoV-OC43 titers (HCoV-OC43 [2]; at VPA 40 mM, 48 hpi, no drug 3.1 ± 0.9 × 10^6, Fig. 1) was 1.2 ± 0.1 × 10^2 PFU/mL and the IC50 (HCoV-OC43 [13]; Betacoronavirus 1, OC43, read-out: IC50, HCoV-OC43 production, AV added 0 hpi) was 9.69 mM. For the same molecule, the IC50 (HCoV-OC43 [13]; Betacoronavirus 1, OC43, read-out: IC50, HCoV-OC43 production, AV added 2 hpi) was 9.49 mM, the IC50 (HCoV-OC43 [13]; Betacoronavirus 1, OC43, read-out: IC50, HCoV-OC43 production, AV added −3 hpi (1 h before adsorption)) was 9.87 mM and the HCoV-OC43 average titers (HCoV-OC43 [13]; at 40 mM VPA, average of addition times, no drug 3.5 ± 0.5 × 10^6) was 5 ± 0.01 × 10^1 PFU/mL. For the same molecule, the CC50 (in vitro [8]; 24 h cell incubation with AV) was 70 mM, the CC50 (in vitro [8]; 48 h cell incubation with AV) was 66 mM and the CC50 (in vitro [9]; 24 h cell incubation with AV) was 95.7 mM. For the same molecule, the CC50 (in vitro [9]; 48 h cell incubation with AV) was 76.2 mM, the “direct virucidal effect (change in virus titers)” value (SARS-CoV-2) was “No decrease in virus titers” and the “inhibition of TGEV multiplication” value (TGEV) was “inhibited the multiplication”. For the same molecule, the HCoV-OC43 titers (HCoV-OC43 [10]; at 32 mM VPA) was 5 ± 0.01 × 10^1 PFU/mL, the SARS-CoV-2 titers (SARS-CoV-2 (MAD6); at 16 mM VPA) was 4 ± 0.1 × 10^4 PFU/mL and the “average DRI” value (SARS-CoV-2 (MAD6)) was 5.19. The IC50 (HCoV-229E-GFP [14]; read-out: IC50, HCoV-229E-GFP production, AV added 0 hpi) was 9.64 mM, the IC50 (HCoV-229E-GFP [14]; read-out: IC50, HCoV-229E-GFP production, AV added 2 hpi) was 9.49 mM and the IC50 (HCoV-229E-GFP [14]; read-out: IC50, HCoV-229E-GFP production, AV added −3 hpi (1 h before adsorption)) was 9.48 mM. For the same molecule, the HCoV-229E-GFP average titers (HCoV-229E-GFP [14]; at 40 mM VPA, average of addition times, no drug 4 ± 0.6 × 10^6) was 6 ± 2 × 10^2 PFU/mL, the IC50 ([15]; average over all tested HCoVs, read-out: average IC50 value) was 7.2 mM and the IC50 ([15]; range over tested HCoVs, read-out: IC50 values, range over HCoVs) was 5 to 9 mM. The “direct virucidal effect (change in virus titers)” value (HCoV-229E-GFP [16]) was “No decrease in virus titers”, the IC50 (HCoV-229E-GFP [3]; [21]) was 9480 ± 1100 µM and the HCoV-229E-GFP titers (HCoV-229E-GFP [3]; at VPA 40 mM, 24 hpi, no drug 3 ± 0.5 × 10^6, Fig. 1) was 2.5 ± 0.3 × 10^2 PFU/mL.

With `O=C(O[C@@H]1Cc2c(O)cc(O)cc2O[C@@H]1c1ccc(O)c(O)c1)c1cc(O)c(O)c(O)c1` [ECG, epicatechin gallate] the IC50 [1, 17] was 0.0501 mM and the SARS-CoV-2 titers [1] was 6 ± 0.3 × 10^4 PFU/mL.

In the case of `CCCCCCCCOC(=O)c1cc(O)c(O)c(O)c1` [OG, octyl gallate], the IC50 (HCoV-OC43 [2]; [22]) is reported as 2.56 µM, the HCoV-OC43 titers (HCoV-OC43 [2]; [18]) is reported as 5 ± 0.01 × 10^1 PFU/mL and the IC50 (HCoV-229E-GFP [3]; Huh-7, read-out: IC50, virus yield, specificity experiment (Fig. 3), Huh-7, 24 hpi) is reported as 3.9 µM. For the same molecule, the HCoV-229E-GFP titers (HCoV-229E-GFP [3]; [19]) was 1.4 ± 0.5 × 10^3 PFU/mL.
